Assay results published in ChEMBL document CHEMBL1201862, “PubChem BioAssay data set” (2004).
Active and inactive are the calls of the source.

How the values were obtained:
[1] = molecular target: Cytochrome P450 3A4 (Homo sapiens, UniProt P08684);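 note: CYP3A4 tested as one member of a cytochrome P450 panel screen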
[2] = molecular target: T1, Cytochrome P450 1A2 (Homo sapiens, UniProt P05177);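 note: PubChem cytochrome P450 panel assay, CYP1A2 panel member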
T1 sequence (P05177 whole entry): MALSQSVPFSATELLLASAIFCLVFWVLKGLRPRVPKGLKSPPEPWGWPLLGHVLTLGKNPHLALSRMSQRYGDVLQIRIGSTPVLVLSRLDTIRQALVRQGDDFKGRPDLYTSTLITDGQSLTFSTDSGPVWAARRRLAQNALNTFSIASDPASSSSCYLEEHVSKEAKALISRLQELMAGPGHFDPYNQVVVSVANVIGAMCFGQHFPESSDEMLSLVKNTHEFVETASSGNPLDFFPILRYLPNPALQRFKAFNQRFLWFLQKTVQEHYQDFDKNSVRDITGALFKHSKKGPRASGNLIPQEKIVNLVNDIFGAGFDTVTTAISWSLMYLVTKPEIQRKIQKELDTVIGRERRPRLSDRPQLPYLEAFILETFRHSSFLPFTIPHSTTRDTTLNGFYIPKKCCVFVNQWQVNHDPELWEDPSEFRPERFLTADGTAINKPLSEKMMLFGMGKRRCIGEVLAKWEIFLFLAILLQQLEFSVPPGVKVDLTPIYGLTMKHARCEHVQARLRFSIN

[3] = molecular target: T2, Carboxy-terminal domain RNA polymerase II polypeptide A small phosphatase 1 (Homo sapiens, UniProt Q9GZU7); assay: CTDSP1 inhibitors, concentration-response, biochemical, absorbance readout, ultra-high-throughput screen actives (AID 540297); assay type: functional
T2 sequence (Q9GZU7 whole entry): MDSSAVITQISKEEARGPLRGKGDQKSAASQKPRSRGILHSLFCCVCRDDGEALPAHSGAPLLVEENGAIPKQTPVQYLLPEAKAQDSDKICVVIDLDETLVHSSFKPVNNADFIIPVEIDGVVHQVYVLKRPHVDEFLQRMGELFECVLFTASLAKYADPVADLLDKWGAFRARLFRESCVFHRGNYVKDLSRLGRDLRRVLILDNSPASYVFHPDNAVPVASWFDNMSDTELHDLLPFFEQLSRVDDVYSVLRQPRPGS

[4] = molecular target: T3, Alkaline phosphatase, tissue-nonspecific isozyme (Homo sapiens, UniProt P05186); assay: potency against alkaline phosphatase TNAP – biochemical, luminescent, dose response, SAR follow-up (AID 1056)
T3 sequence (P05186 whole entry): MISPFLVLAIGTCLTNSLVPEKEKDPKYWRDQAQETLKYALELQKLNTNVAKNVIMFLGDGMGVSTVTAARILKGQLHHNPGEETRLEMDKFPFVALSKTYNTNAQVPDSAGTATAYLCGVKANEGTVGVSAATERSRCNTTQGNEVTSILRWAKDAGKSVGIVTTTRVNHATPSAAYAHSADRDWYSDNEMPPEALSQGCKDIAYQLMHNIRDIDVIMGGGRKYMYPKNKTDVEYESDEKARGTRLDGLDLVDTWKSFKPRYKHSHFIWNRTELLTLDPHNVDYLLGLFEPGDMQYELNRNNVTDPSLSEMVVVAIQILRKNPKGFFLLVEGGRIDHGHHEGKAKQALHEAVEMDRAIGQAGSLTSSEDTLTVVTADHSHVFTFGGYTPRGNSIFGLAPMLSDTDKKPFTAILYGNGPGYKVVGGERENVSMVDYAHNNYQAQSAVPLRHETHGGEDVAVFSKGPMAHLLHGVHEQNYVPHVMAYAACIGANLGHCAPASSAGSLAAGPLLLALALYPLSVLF

[5] = molecular target: T4, Coagulation factor XII (Homo sapiens, UniProt P00748); assay type: functional;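 note: activated factor XIIa alpha cleaving a fluorogenic AMC peptide substrate; inhibitor potency from loss of enzyme activity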
T4 sequence (P00748 whole entry): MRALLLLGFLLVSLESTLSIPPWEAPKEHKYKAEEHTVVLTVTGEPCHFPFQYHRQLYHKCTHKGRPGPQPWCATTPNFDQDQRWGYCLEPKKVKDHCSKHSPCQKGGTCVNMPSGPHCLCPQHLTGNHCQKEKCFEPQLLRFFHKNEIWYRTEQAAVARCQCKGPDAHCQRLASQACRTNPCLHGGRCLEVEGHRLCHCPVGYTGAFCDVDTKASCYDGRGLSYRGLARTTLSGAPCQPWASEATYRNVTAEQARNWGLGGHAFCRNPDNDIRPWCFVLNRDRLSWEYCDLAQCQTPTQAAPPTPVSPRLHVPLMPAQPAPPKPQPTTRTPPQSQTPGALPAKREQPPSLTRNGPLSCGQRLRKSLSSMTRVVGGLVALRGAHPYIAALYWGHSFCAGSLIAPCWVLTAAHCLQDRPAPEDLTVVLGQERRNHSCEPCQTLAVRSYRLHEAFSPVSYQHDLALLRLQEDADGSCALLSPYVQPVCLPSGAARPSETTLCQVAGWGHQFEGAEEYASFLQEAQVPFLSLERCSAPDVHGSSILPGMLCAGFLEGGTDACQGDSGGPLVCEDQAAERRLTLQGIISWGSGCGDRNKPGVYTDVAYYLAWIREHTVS

[6] = molecular target: T5, High affinity choline transporter 1 (Homo sapiens, UniProt Q9GZV3); assay: human choline transporter blockers, potency – cell-based, 5-point CRC, membrane potential dye, dose response (AID 504840); assay type: functional
T5 sequence (Q9GZV3 whole entry): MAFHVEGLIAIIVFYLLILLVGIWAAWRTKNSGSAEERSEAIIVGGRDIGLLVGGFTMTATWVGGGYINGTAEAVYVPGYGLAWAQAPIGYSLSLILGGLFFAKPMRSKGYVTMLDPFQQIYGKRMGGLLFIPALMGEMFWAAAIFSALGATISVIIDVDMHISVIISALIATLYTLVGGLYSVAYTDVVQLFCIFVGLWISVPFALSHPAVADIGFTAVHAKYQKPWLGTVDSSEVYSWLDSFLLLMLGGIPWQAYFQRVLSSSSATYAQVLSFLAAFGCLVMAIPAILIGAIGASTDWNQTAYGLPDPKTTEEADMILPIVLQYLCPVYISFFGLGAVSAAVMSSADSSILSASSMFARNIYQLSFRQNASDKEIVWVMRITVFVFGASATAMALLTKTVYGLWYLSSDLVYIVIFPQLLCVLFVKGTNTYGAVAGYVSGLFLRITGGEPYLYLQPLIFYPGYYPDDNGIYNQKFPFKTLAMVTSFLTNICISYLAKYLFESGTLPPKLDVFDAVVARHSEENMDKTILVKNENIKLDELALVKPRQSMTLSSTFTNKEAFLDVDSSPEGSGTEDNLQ

[7] = molecular target: T6, Short transient receptor potential channel 4 (Mus musculus, UniProt Q9QUQ5); assay: block of DAMGO-driven TRPC4 calcium entry – cell-based, HEK293 TRPC4/mu-opioid, Fluo-4 calcium, dose response (AID 434942); assay type: functional;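 note: potency of inhibitors blocking the TRPC4 calcium response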
T6 sequence (Q9QUQ5 whole entry): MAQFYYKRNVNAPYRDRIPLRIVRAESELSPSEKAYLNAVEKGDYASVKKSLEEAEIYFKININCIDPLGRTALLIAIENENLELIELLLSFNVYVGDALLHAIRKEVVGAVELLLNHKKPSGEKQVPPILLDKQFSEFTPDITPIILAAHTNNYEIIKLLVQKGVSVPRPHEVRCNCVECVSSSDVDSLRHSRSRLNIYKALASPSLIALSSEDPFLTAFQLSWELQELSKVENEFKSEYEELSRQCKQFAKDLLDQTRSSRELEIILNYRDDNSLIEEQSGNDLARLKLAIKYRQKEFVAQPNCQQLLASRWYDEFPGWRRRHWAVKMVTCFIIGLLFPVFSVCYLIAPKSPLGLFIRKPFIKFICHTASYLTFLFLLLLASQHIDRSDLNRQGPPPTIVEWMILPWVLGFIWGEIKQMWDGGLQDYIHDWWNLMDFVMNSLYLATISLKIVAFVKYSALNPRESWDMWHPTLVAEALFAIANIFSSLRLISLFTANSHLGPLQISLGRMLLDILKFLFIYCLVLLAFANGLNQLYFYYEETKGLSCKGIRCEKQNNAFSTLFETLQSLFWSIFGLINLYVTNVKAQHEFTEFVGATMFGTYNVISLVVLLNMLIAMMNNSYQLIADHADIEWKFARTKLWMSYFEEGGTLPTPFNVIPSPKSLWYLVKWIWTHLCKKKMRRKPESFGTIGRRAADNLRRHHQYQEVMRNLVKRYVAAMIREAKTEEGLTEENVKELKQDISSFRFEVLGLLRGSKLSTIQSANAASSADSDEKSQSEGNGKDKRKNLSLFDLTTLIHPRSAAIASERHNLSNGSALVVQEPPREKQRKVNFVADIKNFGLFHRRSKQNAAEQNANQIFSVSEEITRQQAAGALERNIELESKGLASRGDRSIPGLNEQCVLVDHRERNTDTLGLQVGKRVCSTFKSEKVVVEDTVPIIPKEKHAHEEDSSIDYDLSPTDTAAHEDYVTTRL

[8] = system: Vero; assay: cells; assay type: functional; conditions: Chlorocebus sabaeus
[9] = cells; assay type: functional

Chain of Cytochrome P450 3A4 (P08684 whole entry): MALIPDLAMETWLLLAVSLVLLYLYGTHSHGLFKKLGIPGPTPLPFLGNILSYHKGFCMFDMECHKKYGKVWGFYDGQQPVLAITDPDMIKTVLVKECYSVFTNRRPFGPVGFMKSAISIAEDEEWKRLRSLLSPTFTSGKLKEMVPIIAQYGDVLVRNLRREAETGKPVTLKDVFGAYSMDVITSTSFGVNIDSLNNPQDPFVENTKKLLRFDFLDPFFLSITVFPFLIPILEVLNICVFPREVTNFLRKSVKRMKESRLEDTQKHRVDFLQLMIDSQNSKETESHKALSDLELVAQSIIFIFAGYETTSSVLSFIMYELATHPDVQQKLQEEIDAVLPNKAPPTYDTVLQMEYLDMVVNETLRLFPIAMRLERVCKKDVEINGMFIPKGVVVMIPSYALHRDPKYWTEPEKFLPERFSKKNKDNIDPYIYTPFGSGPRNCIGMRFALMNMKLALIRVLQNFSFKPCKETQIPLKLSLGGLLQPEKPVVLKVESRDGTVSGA

N#Cc1cccc(NC(=O)N2CCC3(CC2)CCN(C(=O)c2cccc(F)c2)CC3)c1
AC50 [1]: inconclusive

Cn1cccc1C(=O)N1CCC2(CC1)CCN(C(c1ccccc1)c1ccccc1)CC2
AC50 [1]: inconclusive
AC50 [2]: 5.01 µM (inconclusive)

O=C(Nc1ccc(S(=O)(=O)Nc2nccs2)cc1)c1nn(-c2ccccc2)ccc1=O
IC50 [3]: 3.52 µM (active)

CCOc1ccc(C(C)(C)C)cc1S(=O)(=O)Nc1cccnc1
IC50 [4]: 12.5 µM (active)

CC1CN(C2=CC(=[N+]3CCOCC3)CC(C)(C)C2)CC(C)O1 (configuration not stated)
IC50 [3]: 1.83 µM (active)

O=C(Nc1ccccc1Cl)C1CC(=O)N(c2ccccc2)C1 (configuration not stated)
IC50 [5]: > 50 µM (inactive)

COc1ccccc1CC(Cc1nc2ccccc2[nH]1)c1nc2ccccc2[nH]1 (configuration not stated)
IC50 [6]: 13.8 µM (active)
EC50 [7]: 3.35 µM (active)

O=C(O)c1nn(CCOc2c(Cl)cccc2Cl)c(=O)c2ccccc12
CC50 [8]: > 25 µM (active)

O=[N+]([O-])c1cncc([N+](=O)[O-])c1Nc1ccccc1Cl
IC50 [5]: > 50 µM (inactive)
IC50 [9]: 8.86 µM (active)
